Assay results from patent publication US5854002A (Rhone Poulenc, Inc., priority 1996, dated 1998).
Like-named read-outs stand apart in the source and are kept apart here.

Tests used:
Drosophila Grd and LCCH3 = molecular target: T1, Drosophila Grd and LCCH3 (Drosophila melanogaster, UniProt Q08832+Q24352); assay: [3H] muscimol radioligand binding assay, membranes of High Five cells co-infected with vBP8-Grd/vBP8-LCCH3
T1 construct: made in house; host or cells: High Five (Trichoplusia ni) cells, co-infected with vBP8-Grd and vBP8-LCCH3
T1 sequence (Q24352 59-686): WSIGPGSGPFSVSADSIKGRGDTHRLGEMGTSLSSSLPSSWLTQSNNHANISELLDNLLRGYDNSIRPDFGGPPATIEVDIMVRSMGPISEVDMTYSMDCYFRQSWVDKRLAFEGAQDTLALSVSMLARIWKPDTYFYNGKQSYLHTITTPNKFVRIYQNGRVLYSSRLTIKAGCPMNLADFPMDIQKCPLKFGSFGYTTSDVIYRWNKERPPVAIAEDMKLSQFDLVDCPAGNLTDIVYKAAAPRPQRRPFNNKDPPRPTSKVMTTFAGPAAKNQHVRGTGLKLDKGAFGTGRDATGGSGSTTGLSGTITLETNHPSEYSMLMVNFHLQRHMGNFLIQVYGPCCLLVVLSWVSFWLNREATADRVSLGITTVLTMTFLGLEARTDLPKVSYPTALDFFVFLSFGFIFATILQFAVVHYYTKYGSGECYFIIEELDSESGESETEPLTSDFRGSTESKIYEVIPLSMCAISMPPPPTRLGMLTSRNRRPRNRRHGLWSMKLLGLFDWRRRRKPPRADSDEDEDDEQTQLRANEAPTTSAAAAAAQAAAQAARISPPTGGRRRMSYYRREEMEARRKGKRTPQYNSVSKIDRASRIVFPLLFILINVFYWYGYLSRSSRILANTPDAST
T1 sequence (Q08832 21-496): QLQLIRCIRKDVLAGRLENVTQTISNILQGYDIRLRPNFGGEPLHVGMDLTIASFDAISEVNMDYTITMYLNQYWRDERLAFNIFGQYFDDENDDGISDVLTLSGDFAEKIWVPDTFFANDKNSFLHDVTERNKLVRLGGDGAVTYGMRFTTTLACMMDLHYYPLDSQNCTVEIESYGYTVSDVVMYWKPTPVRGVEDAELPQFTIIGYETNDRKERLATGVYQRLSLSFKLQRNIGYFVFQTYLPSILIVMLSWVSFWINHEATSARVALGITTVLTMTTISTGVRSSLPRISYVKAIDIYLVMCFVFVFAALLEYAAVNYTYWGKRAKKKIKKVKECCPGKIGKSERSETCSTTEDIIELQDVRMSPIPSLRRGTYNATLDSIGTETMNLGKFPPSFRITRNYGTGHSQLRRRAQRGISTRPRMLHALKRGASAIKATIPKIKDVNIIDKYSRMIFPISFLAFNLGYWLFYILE
Protocol: (§1) High Five™ cells (derived from the cabbage loper, Trichoplusia ni, Invitrogen Corp.) were infected with vBP8-Rdl, vBP8-LCCH3, or vBP8-Grd, either singly or in various combinations. Cells were harvested at 3 days post-infection in tubes of approximately 6×10^7 cells per tube, the cells were pelleted by centrifugation, the supernatants discarded, and the pellets immediately stored at -80° C. This amount of tissue is sufficient for one 96-well microtiter plate. Membranes were prepared by first thawing and then resuspending the cell pellet in 25 mL of 10 mM phosphate buffer pH 7.4. The cells were gently homogenized with five strokes in a glass/Teflon homogenizer and the membranes pelleted by centrifugation at 120,000 g for 30 minutes. The membrane pellet was resuspended in 25 mL of 10 mM phosphate buffer pH 7.4, re-pelleted as above, and the pellet finally resuspended in 3 mL of buffer. The protein concentration was determined by the Bradford method (Bradford (1976) Anal. Biochem. 79:248) and then adjusted to 625 μg of protein per mL of 10 mM PBS, pH 7.4.
The radioligand binding assays were composed of 200 μL membrane preparation (containing 125 μg protein), 100 μL of [^3 H] muscimol (to give a final concentration of 5 nM), 20 μL of unlabeled test compound, buffer or unlabeled muscimol, and 680 μL of 10 mM PBS, pH 7.4. […] The reactions were incubated for 90 minutes at 4° C., and then terminated by filtration through Whatman GF/B glass fiber filters. Filters were washed with two 5 mL aliquots of cold buffer, and the radioactivity remaining on the filters was determined by liquid scintillation. Multiple assays were performed to test numerous compounds.

Rat brain = assay: [3H] muscimol binding, rat brain (previous assays of the inventors)
Text: Data from fly heads and rat brains were obtained as described in Table 2.

Drosophila Rdl = molecular target: T2, Drosophila Rdl (Drosophila melanogaster, UniProt P25123); assay: [3H] muscimol radioligand binding assay, membranes of High Five cells infected with vBP8-Rdl
T2 construct: excised the full-length cDNA encoding Rdl; made in house; host or cells: High Five (Trichoplusia ni) cells, baculovirus vBP8-Rdl
T2 sequence (P25123 45-606): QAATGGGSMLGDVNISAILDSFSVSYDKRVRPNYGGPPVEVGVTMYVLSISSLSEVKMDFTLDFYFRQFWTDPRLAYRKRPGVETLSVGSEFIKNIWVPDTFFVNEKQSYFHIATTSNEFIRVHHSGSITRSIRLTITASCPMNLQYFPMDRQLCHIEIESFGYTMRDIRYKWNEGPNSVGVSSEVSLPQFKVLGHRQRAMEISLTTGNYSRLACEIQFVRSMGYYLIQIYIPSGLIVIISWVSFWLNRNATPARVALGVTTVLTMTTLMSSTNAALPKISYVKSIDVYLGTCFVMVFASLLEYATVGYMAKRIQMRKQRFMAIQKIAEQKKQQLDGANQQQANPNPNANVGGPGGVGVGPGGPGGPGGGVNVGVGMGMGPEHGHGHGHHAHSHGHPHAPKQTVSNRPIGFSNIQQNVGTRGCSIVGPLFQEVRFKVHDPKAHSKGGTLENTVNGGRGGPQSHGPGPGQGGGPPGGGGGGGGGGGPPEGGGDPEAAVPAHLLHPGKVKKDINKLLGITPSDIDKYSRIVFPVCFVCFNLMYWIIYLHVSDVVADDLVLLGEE
Protocol: as §1
The reactions were incubated for 90 minutes at 4° C., and then terminated by filtration through Whatman GF/B glass fiber filters. Filters were washed with two 5 mL aliquots of cold buffer, and the radioactivity remaining on the filters was determined by liquid scintillation. Multiple assays were performed to test numerous compounds.

[1] = tested on: insect cells infected with either vBP8-Grd, vBP8-LCCH3, or co-infected with vBP8-Grd and vBP8-LCCH3; assay: Whole cell voltage clamp recordings of infected insect cells; assay type: cell-based, Drosophila; details: GABA applications of up to 1 mM, 30 to 36 hours post-infection, any of the three infected cell types
Protocol: Insect cells infected with either vBP8-Grd, vBP8-LCCH3, or co-infected with vBP8-Grd and vBP8-LCCH3 were analyzed for the expression and assembly of functional GABA-gated chloride channels. Whole cell voltage clamp recordings were made at between 30 and 36 hours post-infection. […] However, no specific [^3 H]EBOB binding was detected in cells infected with any combination of virus.

[2] = half-maximal displacement of [3H] muscimol, read-out: IC50, Grd/LCCH3
[3] = half-maximal displacement of [3H] muscimol, previous assays by the inventors
[4] = half-maximal displacement of [3H] muscimol, read-out: IC50, Rdl

SMILES	IC50 (Drosophila Grd and LCCH3; [2]) [µM]	IC50 (Rat brain; [3]) [µM]	IC50 (Drosophila Rdl; [4]) [µM]	IC50 (Drosophila Grd and LCCH3) [µM]	IC50 (Drosophila Rdl) [µM]	Depolarization in whole cell voltage clamp [1]	IC50 (Rat brain) [µM]
NCCCCC(=O)O [5-amino-valeric acid]	0.749	> 1000	2.1				
NCC(CC(=O)O)c1ccc(Cl)cc1 (centres unmarked) [Baclofen]	> 1000	> 1000	> 1000				
CN1CCc2cc3c(cc2[C@H]1[C@@H]1OC(=O)c2c1ccc1c2OCO1)OCO3 [Bicuculline]		19		> 1000	> 1000		
NCCCC(=O)O [GABA, γ-aminobutyric acid]	0.038					Depolarization was not detected	
COc1ccc(-c2ccc(=N)n(CCCC(=O)O)n2)cc1 [Gabazine]	> 1000		> 1000				0.483
COc1ccc2c(c1OC)C(=O)O[C@@H]2[C@H]1c2cc3c(cc2CCN1C)OCO3 [Hydrastine]		2.61		> 1000	> 1000		
